In the experiment the target is PKM2 (Homo sapiens, UniProt P14618). The experiment can be described thus: Cell-Based Pyruvate Kinase Activity Assay, A549. Also on record: host or cells: A549 or NCI-H1299 lung cancer cells. As to conditions: A549, 30 minutes with compound, n = 4; read-out: Cellular PKM2 activation EC50. As to the method: Cell-Based Pyruvate Kinase Activity Assay
A549 or NCI-H1299 lung cancer cells were plated at 20,000 cells per well (96-well plate) in MEM media plus 10% FBS, with no additional glutamine or pyruvate. Following overnight incubation, cells were washed with PBS followed by 4 hour incubation in MEM media. Compounds were added to the cells in 1% final concentration DMSO. After 30 minutes, cells were lysed, and pyruvate kinase activity in lysates was determined by Pyruvate Kinase Activity Assay (BioVision, Milpitas, Calif.). Maximum velocity values were calculated from the kinetic data, and AC50 values were determined using Prism GraphPad Software (La Jolla, Calif.). Compound washout experiments were as described above, except after a 30 minute incubation with Example 244 (469 nM), the cells were washed with PBS followed by the addition of MEM media for the indicated time period, lysed and pyruvate kinase activity determined. Results are tabulated in Table 3 and presented graphically in FIGS. 6A and 6B.

Sequence of PKM2 (P14618 2-531 limits assumed): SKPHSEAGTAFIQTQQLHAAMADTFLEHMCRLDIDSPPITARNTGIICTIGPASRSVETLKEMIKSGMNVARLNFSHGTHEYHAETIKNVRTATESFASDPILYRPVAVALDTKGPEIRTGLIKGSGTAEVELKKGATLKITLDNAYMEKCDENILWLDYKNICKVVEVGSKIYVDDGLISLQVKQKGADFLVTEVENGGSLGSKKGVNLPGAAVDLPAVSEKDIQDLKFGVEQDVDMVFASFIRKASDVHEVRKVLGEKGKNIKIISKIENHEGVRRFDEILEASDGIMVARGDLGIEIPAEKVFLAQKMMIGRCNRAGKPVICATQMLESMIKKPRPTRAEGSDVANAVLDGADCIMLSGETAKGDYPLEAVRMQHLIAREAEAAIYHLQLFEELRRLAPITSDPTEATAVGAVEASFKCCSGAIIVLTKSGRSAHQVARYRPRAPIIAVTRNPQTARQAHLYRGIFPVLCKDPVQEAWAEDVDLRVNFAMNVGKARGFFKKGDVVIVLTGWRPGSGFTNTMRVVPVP

For the molecule `O=C(c1cc(C(F)(F)F)n[nH]1)N(Cc1ccc(O)cc1F)CC1CCC1` [Example 1, N-(cyclobutylmethyl)-N-(2-fluoro-4-hydroxybenzyl)-3-(trifluoromethyl)-1H-pyrazole-5-carboxamide], the 50% effective concentration (EC50) (as a rule, the midpoint of the concentration-response curve) was determined as 260 ± 120 nM.

These data come from US10766865B2, “PKM2 modulators and methods for their use” (TOLERO PHARMACEUTICALS, INC., priority 2012, dated 2020).
